The text below walks through data of patent US10947196B2, “Beta adrenergic agonist and methods of using the same” (CURASEN THERAPEUTICS, INC., priority 2019, dated 2021).

SMILES strings stand for the structures. Like-named read-outs stand apart in the source and are kept apart here.

One data set has as its target β2 adrenergic receptor (Homo sapiens (Human), UniProt P07550). Briefly: cAMP Gs dynamic HTRF assay, β2 expressing CHO cells. The format is cell-based. The gist of the method: (§1)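 Intracellular cAMP quantified by Eu-donor/d2-acceptor HTRF after 30 min compound exposure at 37° C in stimulation buffer with IBMX. Concentrations ran 10 μM top, 5-fold steps, 10 points. Cell lines: 1321N1 astrocytoma and CHO expressing β1 or β2; EC50 via four-parameter fit, relative efficacy against isoproterenol.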
In general terms: In TR-FRET formats the signal depends on donor and acceptor labels being close together.

The next data set has as its target β1-adrenergic receptor (Homo sapiens (Human), UniProt P08588). Briefly: cAMP Gs dynamic HTRF assay, β1 expressing CHO cells. Type of data set: cell-based. The gist of the method: as §1
Data set [1] in a line: Monkey pharmacokinetic studies. The format is in vivo, male Non-Naïve Cynomolgus Monkeys. Also noted: AUClast/D: unit not given here. The note with it: PO 0.3 mg/kg; for AUC(0-inf) / Cmax / Tmax / MRT inf / AUC(0-t) / half-life: male, cynomolgus monkey; for MRT inf: read-out: MRTInf—obs. The protocol:
The rat pharmacokinetics studies of exemplary compounds 03-3, 03-5, and 03-115 were conducted with male SD rats. These rats were typically about 6-8 weeks old, weighing 200 g to 300 g. Animals were fasted overnight and free access to food 4 hours after dosing. A required volume of vehicle was added to reach the target concentration of the test article and vehicle component to prepare for the dosing. The dosing vehicle was PEG400 or 30% PEG400 in saline for IV, or 0.5% methylcellulose in water for PO. For IV dosing, the animals were administered intravenously via tail vein. For PO dosing, the animals were administered via oral gavage. After dosing, blood sample was collected (˜0.2 mL per time point) through jugular vein or heart puncture. Blood of each sample was transferred into plastic micro centrifuge tubes containing EDTA-K2. Collection tubes with blood samples and anticoagulant were inverted several times for proper mixing of the tube contents and then placed on wet ice. The blood samples were centrifuged at 2000 g for 5 minutes at 4° C. to obtain plasma which was stored in a freezer at −75±15° C. prior to analysis. Samples were analyzed using LC-MS/MS. WinNonlin were used for pharmacokinetic calculations.
Monkey pharmacokinetics studies of exemplary compounds 03-3, 03-5, and 03-115 were conducted substantially similarly to the rat pharmacokinetic studies, instead using male Non-Naïve Cynomolgus Monkeys. Animals for PO studies were food fasted overnight prior to dosing and were fed approximately 2 hours after dosing. Animals for IV studies had free access to food and water. Blood samples were collected through venipuncture of peripheral veins except the dosing vein.

The nature of data set [2]: Brain tissue binding, equilibrium dialysis (rat). The format is in vitro ADME. The protocol:
Thawing of the frozen brain tissue homogenate (stored at −80° C.). Frozen brain tissue homogenate was thawed immediately in a room temperature bath. Note: Only use brain tissue homogenate that has been thawed no more than once.
Preparation of working solutions. The working solutions of test compound and control compound propranolol were prepared in DMSO at the concentration of 200 μM. And then 4 μL of working solution was removed to mix with 796 μL of rat brain tissue homogenate to achieve a final concentration of 1 μM (0.5% DMSO). Brain tissue homogenate samples were vortexed thoroughly.
Preparation of dialysis membranes. The dialysis membranes were soaked in ultrapure water for 60 minutes to separate strips, then in 20% ethanol for 20 minutes, finally in dialysis buffer for 20 minutes.
Procedure for equilibrium dialysis. The dialysis apparatus was assembled according to the manufacturer's instruction. Each cell was filled with 150 μL of brain tissue homogenate sample and dialyzed against equal volume of dialysis buffer (PBS). The assay was performed in duplicate. The dialysis plate was sealed and incubated in an incubator at 37° C. with 5% CO2 at approximately 100 rpm for 6 hours. At the end of dialysis, seal was removed and 50 μL of samples from both buffer and brain tissue homogenate chambers were transferred into separate tubes in plate.
Procedure for sample analysis. 50 μL of brain tissue homogenate was added to each buffer samples and an equal volume of PBS was supplemented to the collected brain tissue homogenate sample. 400 μL of room temperature quench solution (acetonitrile containing internal standards (IS, 100 nM Alprazolam, 500 nM Labetalol and 2 μM Ketoprofen)) was added to precipitate protein. Samples in plate were vortexed for 5 minutes and centrifuged at 3,220 g for 30 minutes at room temperature. And then 100 μL of the supernatant was transferred to a new 96-well plate with 100 μL water for LC-MS/MS analysis.
Data analysis. All calculations were carried out using Microsoft Excel. […]
Fumeans=unbound fraction measured with brain tissue homogenate […]

Where [3] appears, read: B2-AR, CHO-K cells, read-out: Average EC50 [Receptor subtype: B2-AR, Cell type: CHO-K].
Where [4] appears, read: B1-AR, CHO-K cells, read-out: Average EC50 [Receptor subtype: B1-AR, Cell type: CHO-K].

Sequence of β2 adrenergic receptor (P07550 whole entry, species assumed): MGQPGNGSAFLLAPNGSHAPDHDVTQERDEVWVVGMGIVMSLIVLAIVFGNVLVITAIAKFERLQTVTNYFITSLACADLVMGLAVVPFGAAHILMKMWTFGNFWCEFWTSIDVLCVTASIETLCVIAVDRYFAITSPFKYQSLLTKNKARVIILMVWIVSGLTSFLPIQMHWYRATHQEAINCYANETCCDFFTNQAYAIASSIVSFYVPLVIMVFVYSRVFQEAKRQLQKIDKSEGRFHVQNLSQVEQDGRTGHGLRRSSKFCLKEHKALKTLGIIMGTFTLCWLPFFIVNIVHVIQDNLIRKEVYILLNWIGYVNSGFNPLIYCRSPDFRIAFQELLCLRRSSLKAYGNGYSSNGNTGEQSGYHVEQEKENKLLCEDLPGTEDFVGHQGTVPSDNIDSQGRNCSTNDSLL
Sequence of β1-adrenergic receptor (P08588 whole entry, species assumed): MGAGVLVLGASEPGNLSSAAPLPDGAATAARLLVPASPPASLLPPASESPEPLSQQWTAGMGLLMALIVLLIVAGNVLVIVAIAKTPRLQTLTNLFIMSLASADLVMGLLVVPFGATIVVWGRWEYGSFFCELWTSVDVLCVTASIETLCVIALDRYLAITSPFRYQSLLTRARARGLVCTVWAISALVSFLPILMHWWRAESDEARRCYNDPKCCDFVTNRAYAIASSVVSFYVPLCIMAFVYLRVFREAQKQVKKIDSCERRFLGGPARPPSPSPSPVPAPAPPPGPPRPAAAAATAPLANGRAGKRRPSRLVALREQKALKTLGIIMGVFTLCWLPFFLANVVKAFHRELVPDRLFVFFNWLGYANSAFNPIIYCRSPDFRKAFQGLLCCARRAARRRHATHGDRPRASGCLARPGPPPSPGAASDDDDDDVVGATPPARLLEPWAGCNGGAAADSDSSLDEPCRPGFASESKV

With `Cc1ncccc1[C@@H](O)CNC(C)(C)C` [Compound 03-115], the EC50 on β2 adrenergic receptor (B2-AR, CHO-K1 (HitHunter), read-out: Average pEC50 [Receptor subtype: B2-AR, Cell type: CHO-K1 (HitHunter)] (converted)) is 10 to 100 nM. On β2 adrenergic receptor (setting [3]), the EC50 was 10 to 100 nM. Also, the “Average pEC50 [Receptor subtype: B1-AR; Cell type: CHO-K1 (HitHunter)]” value on β1-adrenergic receptor (B1-AR) is “C-D”. Besides, the EC50 at β1-adrenergic receptor (setting [4]) is > 1000 nM. The F in data set [1] is recorded as 71%. In data set [1] (in vivo), the AUC(0-inf) – broadly, the area under the concentration-time curve extrapolated to infinity – was 261 ng·h/mL; the Cmax (usually the highest concentration seen after dosing) was determined as 67 ng/mL; the Tmax (in general, the time from dosing to the highest level) worked out at 1.17 h; the MRT inf was found to be 3.46 h. For the same compound, the fraction unbound (commonly the share of the substance not bound to proteins or other matrix) at 6 h, 1 μM in data set [2] (1 μM, rat brain tissue homogenate, dialysis 6 hours, read-out: BTB (rat), percent of unbound fraction) worked out at 1.

Turning to `CC(C)(C)NC[C@H](O)c1cccc(C(F)(F)F)n1` [Compound 03-3], at β2 adrenergic receptor (cAMP HTRF, read-out: β2 EC50), the EC50 is < 10 nM. Also, on β1-adrenergic receptor (β1 EC50 (nM), cAMP HTRF), the EC50 was in the range of 10 to 100 nM. Further, in data set [1], the AUClast/D is 761, the “AUC—% Extrap—obs” value came to 1.87% and the F came out at 44.6%. In data set [1] (plasma), the AUC(0-inf) stood at 232 ng·h/mL, the AUC(0-t) (usually the area under the concentration-time curve up to a stated or last time point) amounted to 228 ng·h/mL, the highest level (Cmax) was 46.6 ng/mL and the Tmax was 1 h. Moreover, in data set [1] (plasma), the half-life (in general, the time in which the quantity being followed falls by half) was 4.32 h and the MRT inf was determined as 4.99 h. The compound also gave a fraction unbound at 6 h, 1 μM in data set [2] (rat, brain homogenate) of 0.48.

With `CC(C)(C)NC[C@H](O)c1cccc(C#N)n1` [Compound 03-5, (S)-6-(2-(tert-butylamino)-1-hydroxyethyl)picolinonitrile], at β2 adrenergic receptor (B2-AR, CHO-K1 (HitHunter)), the “Average pEC50 [Receptor subtype: B2-AR; Cell type: CHO-K1 (HitHunter)]” value is “B-A”. Also, the EC50 on β2 adrenergic receptor (setting [3]) was < 10 nM. For the same compound, the “Average pEC50 [Receptor subtype: B1-AR; Cell type: CHO-K1 (HitHunter)]” value at β1-adrenergic receptor (B1-AR) was “C (C = <7-6)”. In addition, the EC50 on β1-adrenergic receptor (setting [4]) was in the range of 100 to 1000 nM. Further, in data set [1], the AUClast/D came to 1144, the “AUC—% Extrap—obs” value turned out to be 2.13% and the F worked out at 88.3%. In data set [1] (plasma), the AUC(0-inf) came to 351 ng·h/mL, the AUC(0-t) amounted to 343 ng·h/mL, the Cmax was found to be 66.2 ng/mL and the Tmax came to 1 h. Moreover, in data set [1] (plasma), the half-life was 4.53 h and the MRT inf stood at 5.11 h. The compound further showed a fraction unbound at 6 h, 1 μM in data set [2] (rat, brain homogenate) of 0.95.
